Values after ≈ are worked out from the molar mass of the structure shown. Like-named read-outs stand apart in the source and are kept apart here.
How the values were obtained:
HIV-1 IIIB = assay: Anti-HIV-1 activity in MT-4 cells (MTT assay); type: cell-based; conditions: Human immunodeficiency virus 1, IIIB, MT4, 120 h, read-out: EC50 HIV-1 IIIB
Experimental: (§1) The antiviral activities and cytotoxicities of the target compounds were tested using MT-4 cells infected by HIV-1 IIIB or HIV-2 ROD. […] PF74 was utilized as the control drug in this assay.

HIV-2 ROD = assay: Anti-HIV-2 activity in MT-4 cells (MTT assay); type: cell-based; conditions: Human immunodeficiency virus 2, MT4, 120 h, read-out: EC50 HIV-2 ROD
Experimental: as §1

MT-4 cells = assay: Cytotoxicity in mock-infected MT-4 cells (MTT assay); type: cell-based; conditions: uninfected (mock-infected) MT-4 cells, viability reduced by 50%
Experimental: as §1

[1] = Water solubility assay in phosphate buffer (HPLC); type: physicochemical; conditions: for solubility: aqueous buffer, thermodynamic from solid, HPLC; for water solubility compared with PF74: in words, relative to PF74
Experimental: To test the changes in water solubility when two more amides or its mimics were introduced to the target compounds, which may lower the solubility of the target compounds, we performed water solubility assays (Table 2). […] Therefore, we cannot calculate its water solubility. It was illustrated that the solubility of compounds varied greatly under different pH. […] We weighed about 1mg of the compound, dissolved it with 1ml of methanol, and diluted it in gradient (twice each time) to obtain 10 concentrations. The peak area of the compound was tested by HPLC, and the peak area- concentration standard curve was drawn. In addition, about 1 mg, 0.6 mg and 0.3 mg of the compound were weighed and dissolved in 1 mL of pH 2, pH 7 and pH 7.4 phosphate buffer to obtain the saturated solution of the compound. HPLC was used to test the peak area under different pH, and the water solubility of the compound was obtained through the standard curve.

[2] = Cytotoxicity in mock-infected MT-4 cells (MTT assay); type: cell-based; conditions: human, mock-infected (uninfected) MT-4 cells, uninfected (mock-infected) MT-4 cells, viability reduced by 50%
Experimental: as §1

HIV = test system: HIV; parameters: method as in PMID 32612233; conditions: MT-4 cells; read-out: EC50 antiviral activity; cited from earlier work
[3] = MT-4 cells, 50% protection against HIV-induced cytopathic effect, MTT, five days after infection
[4] = phosphate buffer pH 2, saturated solution, read-out: Solubility pH 2
[5] = phosphate buffer pH 7, saturated solution, read-out: Solubility pH 7
[6] = phosphate buffer pH 7.4, saturated solution, read-out: Solubility pH 7.4

COc1ccc(N(C)C(=O)[C@H](Cc2ccccc2)NC(=O)Cn2ccc(NC(=O)c3ccc(F)cc3)cc2=O)cc1 [TD-1b, (S)-4-fluoro-N-(1-(2-((1-((4-methoxyphenyl)(methyl)amino)-1-oxo-3-phenylpropan-2-yl)amino)-2-oxoethyl)-2-oxo-1,2-dihydropyridin-4-yl)benzamide]
EC50 (HIV-1 IIIB; [3]): > 34.8 µM
EC50 (HIV-2 ROD; [3]): 16.2 ± 17.2 µM
CC50 (MT-4 cells): 34.8 ± 5.75 µM

COc1ccc(N(C)C(=O)[C@H](Cc2ccccc2)NC(=O)Cn2ccc(NC(=O)c3ccc4ccccc4c3)cc2=O)cc1 [TD-1k, (S)-N-(1-(2-((1-((4-methoxyphenyl)(methyl)amino)-1-oxo-3-phenylpropan-2-yl)amino)-2-oxoethyl)-2-oxo-1,2-dihydropyridin-4-yl)-2-naphthamide]
EC50 (HIV-1 IIIB; [3]): > 27.6 µM
EC50 (HIV-2 ROD; [3]): > 27.6 µM
CC50 (MT-4 cells): 27.6 ± 3.18 µM

COc1ccc(N(C)C(=O)[C@H](Cc2ccccc2)NC(=O)Cn2ccc(NC(=O)c3ccccc3)cc2=O)cc1 [TD-1a, (S)-N-(1-(2-((1-((4-methoxyphenyl)(methyl)amino)-1-oxo-3-phenylpropan-2-yl)amino)-2-oxoethyl)-2-oxo-1,2-dihydropyridin-4-yl)benzamide]
EC50 (HIV-1 IIIB; [3]): 16.8 ± 0.91 µM
EC50 (HIV-2 ROD; [3]): 4.86 ± 1.71 µM
CC50 (MT-4 cells): 86.5 ± 29.2 µM
solubility [1, 4]: 2.69 ± 0.52 µg/mL (≈ 4.99 µM)
solubility [1, 5]: 5.07 ± 2.6 µg/mL (≈ 9.41 µM)
solubility [1, 6]: 8.66 ± 0.41 µg/mL (≈ 16.1 µM)
water solubility compared with PF74 [1]: moderately increased

COc1ccc(N(C)C(=O)[C@H](Cc2cc(F)cc(F)c2)NC(=O)Cn2ccc(N)cc2=O)cc1 [FTC-2, (S)-2-(2-(4-amino-2-oxopyridin-1(2H)-yl)acetamido)-3-(3,5-difluorophenyl)-N-(4-methoxyphenyl)-N-methylpropanamide]
EC50 (HIV-1 IIIB; [3]): 5.36 ± 0.98 µM
EC50 (HIV-2 ROD; [3]): 15.6 ± 1.06 µM
CC50 (MT-4 cells): > 266 µM
solubility [1, 4]: 367 ± 58.4 µg/mL (≈ 779 µM)
solubility [1, 5]: 261 ± 130 µg/mL (≈ 555 µM)
solubility [1, 6]: 437 ± 51.9 µg/mL (≈ 928 µM)
water solubility compared with PF74 [1]: improved by a factor of hundreds

COc1ccc(N(C)C(=O)[C@H](Cc2ccccc2)NC(=O)Cn2ccc(N)cc2=O)cc1 [TC-2, (S)-2-(2-(4-amino-2-oxopyridin-1(2H)-yl)acetamido)-N-(4-methoxyphenyl)-N-methyl-3-phenylpropanamide]
EC50 (HIV-1 IIIB; [3]): 29.1 ± 4.23 µM
EC50 (HIV-2 ROD; [3]): 19.7 ± 6.42 µM
CC50 (MT-4 cells): 261 ± 33.1 µM

COc1ccc(N(C)C(=O)[C@H](Cc2ccccc2)NC(=O)Cn2ccc(NC(=O)c3cccc(F)c3)cc2=O)cc1 [TD-1c, (S)-3-fluoro-N-(1-(2-((1-((4-methoxyphenyl)(methyl)amino)-1-oxo-3-phenylpropan-2-yl)amino)-2-oxoethyl)-2-oxo-1,2-dihydropyridin-4-yl)benzamide]
EC50 (HIV-1 IIIB; [3]): 18.9 ± 2.66 µM
EC50 (HIV-2 ROD; [3]): 6.59 ± 1.63 µM
CC50 (MT-4 cells): 61.6 ± 8.44 µM

COc1ccc(N(C)C(=O)[C@H](Cc2ccccc2)NC(=O)Cn2ccc(NC(=O)c3ccccc3F)cc2=O)cc1 [TD-1d, (S)-2-fluoro-N-(1-(2-((1-((4-methoxyphenyl)(methyl)amino)-1-oxo-3-phenylpropan-2-yl)amino)-2-oxoethyl)-2-oxo-1,2-dihydropyridin-4-yl)benzamide]
EC50 (HIV-1 IIIB; [3]): 17.9 ± 2.68 µM
EC50 (HIV-2 ROD; [3]): 7.92 ± 0.83 µM
CC50 (MT-4 cells): 81.4 ± 22.7 µM

COc1ccc(N(C)C(=O)[C@H](Cc2ccccc2)NC(=O)Cn2ccc(NC(=O)c3ccc(Cl)cc3)cc2=O)cc1 [TD-1e, (S)-4-chloro-N-(1-(2-((1-((4-methoxyphenyl)(methyl)amino)-1-oxo-3-phenylpropan-2-yl)amino)-2-oxoethyl)-2-oxo-1,2-dihydropyridin-4-yl)benzamide]
EC50 (HIV-1 IIIB; [3]): > 25.5 µM
EC50 (HIV-2 ROD; [3]): > 25.5 µM
CC50 (MT-4 cells): 25.5 ± 2.9 µM

COc1ccc(N(C)C(=O)[C@H](Cc2ccccc2)NC(=O)Cn2ccc(NC(=O)c3ccc(C)cc3)cc2=O)cc1 [TD-1g, (S)-N-(1-(2-((1-((4-methoxyphenyl)(methyl)amino)-1-oxo-3-phenylpropan-2-yl)amino)-2-oxoethyl)-2-oxo-1,2-dihydropyridin-4-yl)-4-methylbenzamide]
EC50 (HIV-1 IIIB; [3]): 25.6 ± 7.51 µM
EC50 (HIV-2 ROD; [3]): 20.5 ± 8.49 µM
CC50 (MT-4 cells): 58.3 ± 4.85 µM

COc1ccc(C(=O)Nc2ccn(CC(=O)N[C@@H](Cc3ccccc3)C(=O)N(C)c3ccc(OC)cc3)c(=O)c2)cc1 [TD-1h, (S)-4-methoxy-N-(1-(2-((1-((4-methoxyphenyl)(methyl)amino)-1-oxo-3-phenylpropan-2-yl)amino)-2-oxoethyl)-2-oxo-1,2-dihydropyridin-4-yl)benzamide]
EC50 (HIV-1 IIIB; [3]): 29.6 ± 4.34 µM
EC50 (HIV-2 ROD; [3]): 10.7 ± 3.66 µM
CC50 (MT-4 cells): 53.1 ± 5.12 µM

Cc1[nH]c2ccccc2c1CC(=O)NC(Cc1ccccc1)C(=O)N(C)c1ccccc1 (stereo not drawn) [PF74, reference compound]
EC50 (HIV-1 IIIB): 1.08 ± 0.24 µM
EC50 (HIV-2 ROD): 5.76 ± 2.14 µM
CC50 at 5 days [2]: > 294 µM
solubility [1, 4]: < 1.12 µg/mL
solubility [1, 5]: 1.44 ± 0.1 µg/mL (≈ 3.38 µM)
solubility [1, 6]: 1.91 ± 0.56 µg/mL (≈ 4.49 µM)

COc1ccc(N(C)C(=O)[C@H](Cc2ccccc2)NC(=O)Cn2ccc(NC(=O)c3ccc([N+](=O)[O-])cc3)cc2=O)cc1 [TD-1l, (S)-N-(1-(2-((1-((4-methoxyphenyl)(methyl)amino)-1-oxo-3-phenylpropan-2-yl)amino)-2-oxoethyl)-2-oxo-1,2-dihydropyridin-4-yl)-4-nitrobenzamide]
EC50 (HIV-1 IIIB; [3]): > 31.9 µM
EC50 (HIV-2 ROD; [3]): > 31.9 µM
CC50 (MT-4 cells): 31.9 ± 1.73 µM

COc1ccc(N(C)C(=O)[C@H](Cc2ccccc2)NC(=O)Cn2ccc(NC(=O)c3ccc(Br)cc3)cc2=O)cc1 [TD-1f, (S)-4-bromo-N-(1-(2-((1-((4-methoxyphenyl)(methyl)amino)-1-oxo-3-phenylpropan-2-yl)amino)-2-oxoethyl)-2-oxo-1,2-dihydropyridin-4-yl)benzamide]
EC50 (HIV-1 IIIB; [3]): > 23.5 µM
EC50 (HIV-2 ROD; [3]): > 23.5 µM
CC50 (MT-4 cells): 23.5 ± 2.79 µM

CC(C)(C#Cc1ccc(-c2ccc(Cl)c3c(NS(C)(=O)=O)nn(CC(F)(F)F)c23)c([C@H](Cc2cc(F)cc(F)c2)NC(=O)Cn2nc(C(F)(F)F)c3c2C(F)(F)[C@@H]2C[C@H]32)n1)S(C)(=O)=O [GS-6207]
EC50 (HIV): 0.000105 µM

COc1ccc(N(C)C(=O)[C@H](Cc2ccccc2)NC(=O)Cn2ccc(NC(=O)c3ccc(C#N)cc3)cc2=O)cc1 [TD-1j, (S)-4-cyano-N-(1-(2-((1-((4-methoxyphenyl)(methyl)amino)-1-oxo-3-phenylpropan-2-yl)amino)-2-oxoethyl)-2-oxo-1,2-dihydropyridin-4-yl)benzamide]
EC50 (HIV-1 IIIB; [3]): 16.8 ± 0.78 µM
EC50 (HIV-2 ROD; [3]): 17.8 ± 2.79 µM
CC50 (MT-4 cells): 137 ± 22.5 µM

COc1ccc(N(C)C(=O)[C@H](Cc2ccccc2)NC(=O)Cn2ccc(NC(=O)c3ccc(N)cc3)cc2=O)cc1 [TD-1m, (S)-4-amino-N-(1-(2-((1-((4-methoxyphenyl)(methyl)amino)-1-oxo-3-phenylpropan-2-yl)amino)-2-oxoethyl)-2-oxo-1,2-dihydropyridin-4-yl)benzamide]
EC50 (HIV-1 IIIB; [3]): > 189 µM
EC50 (HIV-2 ROD; [3]): 17.1 ± 2.49 µM
CC50 (MT-4 cells): 189 ± 2.19 µM

COC(=O)c1ccc(C(=O)Nc2ccn(CC(=O)N[C@@H](Cc3ccccc3)C(=O)N(C)c3ccc(OC)cc3)c(=O)c2)cc1 [TD-1i, methyl (S)-4-((1-(2-((1-((4-methoxyphenyl)(methyl)amino)-1-oxo-3-phenylpropan-2-yl)amino)-2-oxoethyl)-2-oxo-1,2-dihydropyridin-4-yl)carbamoyl)benzoate]
EC50 (HIV-1 IIIB; [3]): 19.1 ± 5.08 µM
EC50 (HIV-2 ROD; [3]): 15.2 ± 0.55 µM
CC50 (MT-4 cells): 96.2 ± 19.8 µM
